US20240174652A1, “NOVEL DIOXANE DERIVATIVES” (Boehringer Ingelheim International GmbH, priority 2022, published 2024)

Target: human metabotropic Glutamate 4 receptor (Homo sapiens (Human), UniProt Q14833)
Assay: Assay A: in vitro testing of mGluR4 potency (cAMP HTRF, glutamate/forskolin stimulated)
Format: cell-based
Details: HEK293 cells overexpressing human mGluR4, 10 uM L-glutamic acid, 1 uM forskolin
Protocol: A. In Vitro Testing of mGluR4 Potency The in vitro activity of the compounds according to the invention may be investigated as follows:
The HEK293 cell overexpressing the human metabotropic Glutamate 4 receptor are thawed at 37° C. and immediately diluted with cell culture medium. After centrifugation, the cell pellet is re-suspended in medium and then distributed from a stirred spinner flask into the wells of the assay plate. The plates are incubated for one hour at room temperature before they are incubated for 24 hours at 37° C./5% CO2. After washing the cells in the plate three times with 80 uL HBSS/HEPES buffer (10 uL buffer remained in the wells after washing), 5 uL per well of compounds diluted in HBSS/HEPES buffer containing 0.2% BSA (final concentration: 0.1%) and 1 mM IBMX (final concentration: 0.5 mM) are added to the wells of the assay plate. Thereafter 5 uL per well of L-Glutamic acid (final concentration: 10 uM), forskolin (final concentration: 1 uM) and 1 mM IBMX (final concentration: 0.5 mM) dissolved in HBSS/HEPES buffer containing 0.2% BSA (final concentration: 0.1%) are added to the assay plate (final DMSO concentration: 1%). Several wells of the assay plate are used either for the positive and the negative controls or for the cAMP standard curve. The assay plate is incubated for 30 minutes at room temperature. Then 5 ul per well of Anti-cAMP-Antibody-d2 solution and 5 ul per well of cAMP-Europium Cryptate dilution are added to all wells of the plate and the plate is incubated another 60 minutes light protected at room temperature. The emission at 615 nm and 665 nm (Excitation wavelength: 320 nm) are measured on the EnVision™ reader (Perkin Elmer). The ratio between the emission at 665 nm and 615 is calculated by the reader. The whole assay is performed in the dark or under green light.
The cAMP standard is prepared by diluting the cAMP stock solution with HBSS/Hepes buffer: 5 μl/well of the cAMP dilutions (in HBSS/Hepes buffer containing 1 mM IBMX and 0.2% BSA—final concentration: 0.5 mM IBMX and 0.1% BSA) are added to 10 ul/well HBSS/Hepes buffer plus 5 ul/well 4% DMSO in HBSS/Hepes containing 0.2% BSA (final DMSO concentration: 1% —like in the wells containing compounds) in the wells of the assay plate. The final cAMP concentrations in the assay plate are: 0, 0.17, 0.69, 2.78, 11.1, 44.5, 178, and 712 nM (two wells/cAMP concentration).
Each assay microtiter plate contained also wells with vehicle controls instead of compound as controls for L-Glutamic acid induced signal (negative control; 100% CTL; 10 uM L-Glutamic acid+1 uM forskolin+0.5 mM IBMX+1% DMSO) and wells with vehicle controls without L-Glutamic acid as controls for non-specific changes in signal (positive control; 0% CTL; 0 uM L-Glutamic acid+1 uM forskolin+0.5 mM IBMX+1% DMSO).
The analysis of the data is performed by the calculation the ratio between the emission at 665 nm and the emission at 615 nm (Em665/Em615 ratio). Thereafter the signals of the compounds are normalized using the positive and negative controls by the following formula:
PoC=100×((Signal Sample−Positive Control)/(Negative Control−Positive Control))

[1] = compounds of the present invention
[2] = prior-art compounds of WO2019/138017

Chain of human metabotropic Glutamate 4 receptor (Q14833 33-912): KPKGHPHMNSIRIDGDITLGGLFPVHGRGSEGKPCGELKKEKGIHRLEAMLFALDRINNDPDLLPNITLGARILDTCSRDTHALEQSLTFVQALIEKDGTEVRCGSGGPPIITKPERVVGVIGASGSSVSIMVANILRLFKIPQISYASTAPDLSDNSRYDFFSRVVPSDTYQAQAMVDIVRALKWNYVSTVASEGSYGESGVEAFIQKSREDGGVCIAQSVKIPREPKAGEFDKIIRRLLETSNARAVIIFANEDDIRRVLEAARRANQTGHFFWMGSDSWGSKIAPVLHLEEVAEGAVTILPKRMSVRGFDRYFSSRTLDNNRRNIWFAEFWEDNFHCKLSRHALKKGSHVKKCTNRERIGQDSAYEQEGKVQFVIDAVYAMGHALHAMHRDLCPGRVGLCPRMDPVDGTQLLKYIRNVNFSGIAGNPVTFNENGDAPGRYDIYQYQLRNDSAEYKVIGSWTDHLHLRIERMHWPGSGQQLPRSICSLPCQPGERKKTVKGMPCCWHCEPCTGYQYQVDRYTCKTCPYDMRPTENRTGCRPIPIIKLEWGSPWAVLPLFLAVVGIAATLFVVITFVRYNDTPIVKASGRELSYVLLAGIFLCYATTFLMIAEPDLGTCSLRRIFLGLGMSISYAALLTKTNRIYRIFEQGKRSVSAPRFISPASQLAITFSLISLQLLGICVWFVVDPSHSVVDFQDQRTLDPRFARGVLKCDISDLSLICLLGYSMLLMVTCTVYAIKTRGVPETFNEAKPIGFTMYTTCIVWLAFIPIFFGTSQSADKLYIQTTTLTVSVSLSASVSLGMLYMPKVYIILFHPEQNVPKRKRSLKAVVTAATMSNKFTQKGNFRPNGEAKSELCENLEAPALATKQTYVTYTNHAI

SMILES | IC50 [1] [nM] | IC50 [2] [nM]
Cc1cnc(C(=O)NC(c2nc3cc(C(F)(F)F)ccc3n2C)C2COCCO2)cn1 (single isomer, unassigned) [Example 1-1, N-[(1,4-dioxan-2-yl)[1-methyl-5-(trifluoromethyl)-1H-1,3-benzodiazol-2-yl]methyl]-5-methylpyrazine-2-carboxamide] | 67 | 
Cc1cnc(C(=O)NC(c2nc3cc(Cl)ccc3n2CC(F)F)C2COCCO2)cn1 (single isomer, unassigned) [Example 4, N-{[5-chloro-1-(2,2-difluoroethyl)-1H-1,3-benzodiazol-2-yl](1,4-dioxan-2-yl)methyl}-5-methylpyrazine-2-carboxamide] | 7 | 
Cc1cnc(C(=O)NC(c2nc3cc(Cl)ccc3n2CC(F)F)C2COCCO2)cn1 (single isomer, unassigned) [Example 5] | 62 | 
Cc1cnc(C(=O)NC(c2nc3ccc(C(F)(F)F)cc3n2CC(F)F)C2COCCO2)cn1 (single isomer, unassigned) [Example 6] | 6 | 
Cc1cnc(C(=O)NC(c2nc3ccc(C(F)(F)F)cc3n2C)C2COCCO2)cn1 (single isomer, unassigned) [Example 7, N-[(1,4-dioxan-2-yl)[1-methyl-6-(trifluoromethyl)-1H-1,3-benzodiazol-2-yl]methyl]-5-methylpyrazine-2-carboxamide] | 70 | 
Cc1cnc(C(=O)NC(c2nc3cc(F)c(F)cc3n2CC(F)F)C2COCCO2)cn1 (single isomer, unassigned) [Example 9, N-{[1-(2,2-difluoroethyl)-5,6-difluoro-1H-1,3-benzodiazol-2-yl](1,4-dioxan-2-yl)methyl}-5-methylpyrazine-2-carboxamide] | 11 | 
CCn1c(C(NC(=O)c2cnc(C)cn2)C2COCCO2)nc2cc(F)ccc21 (single isomer, unassigned) [Example 10, N-[(1,4-dioxan-2-yl)(1-ethyl-5-fluoro-1H-1,3-benzodiazol-2-yl)methyl]-5-methylpyrazine-2-carboxamide] | 20 | 
CCn1c(C(NC(=O)c2cnc(C)cn2)C2COCCO2)nc2cc(F)c(F)cc21 (single isomer, unassigned) [Example 11] | 15 | 
Cc1cnc(C(=O)N[C@H](c2nc3cc(C(F)(F)F)ccc3n2C)[C@H]2COCCO2)cn1 [Example 1, N-[(R)-[(2S)-1,4-dioxan-2-yl][1-methyl-5-(trifluoromethyl)-1H-1,3-benzodiazol-2-yl]methyl]-5-methylpyrazine-2-carboxamide] | 20 | 
Cc1cnc(C(=O)N[C@H](c2nc3cc(F)ccc3n2CC(F)F)[C@H]2COCCO2)cn1 [Example 2, N-[(R)-[1-(2,2-difluoroethyl)-5-fluoro-1H-1,3-benzodiazol-2-yl][(2S)-1,4-dioxan-2-yl]methyl]-5-methylpyrazine-2-carboxamide] | 14 | 
CCn1c([C@@H](NC(=O)c2cnc(C)cn2)[C@H]2COCCO2)nc2cc(C(F)(F)F)ccc21 [Example 3, N-[(R)-[(2S)-1,4-dioxan-2-yl][1-ethyl-5-(trifluoromethyl)-1H-1,3-benzodiazol-2-yl]methyl]-5-methylpyrazine-2-carboxamide] | 5 | 
Cc1nocc1C(=O)N[C@H](c1nc2cccc(F)c2[nH]1)[C@H]1CC[C@H](C)CC1 [Example 8 in WO2019/ 138017, reference compound] |  | 9850
Cc1cnc(C(=O)N[C@H](c2nc3ccc(F)cc3n2CC(F)F)[C@H]2COCCO2)cn1 [Example 8, N-[(R)-[1-(2,2-difluoroethyl)-6-fluoro-1H-1,3-benzodiazol-2-yl][(2S)-1,4-dioxan-2-yl]methyl]-5-methylpyrazine-2-carboxamide] | 31 | 
COc1ccc2[nH]c(C(NC(=O)c3conc3C)C3CCCCCCC3)nc2c1F (centres unmarked) [Example 12 in WO2019/ 138017, reference compound] |  | > 10000
CCn1nccc1C(=O)N[C@H](c1nc2ccc(C#N)c(F)c2[nH]1)[C@H]1CC[C@H](C)CC1 [Example 125 in WO2019/ 138017, reference compound] |  | 5600
Cn1nccc1C(=O)N[C@H](c1nc2c(F)c(Br)ccc2n1C)[C@H]1CC[C@@H](C)CC1 [Intermediate 250 in WO2019/ 138017 (regioisomere 1), reference compound] |  | 6300
Cn1nccc1C(=O)N[C@H](c1nc2c(F)c(Br)ccc2n1C)[C@H]1CC[C@H](C)CC1 [Intermediate 250 in WO2019/ 138017 (regioisomere 2), reference compound] |  | 4000
